Holding throughout (assay type): biochemical
In one experiment the target is T1, JAK3 (Homo sapiens, UniProt P52333).
T1 construct: purchased Invitrogen Corporation, Carlsbad, Calif; IVGN PV4080
T1 sequence (P52333 1-1124): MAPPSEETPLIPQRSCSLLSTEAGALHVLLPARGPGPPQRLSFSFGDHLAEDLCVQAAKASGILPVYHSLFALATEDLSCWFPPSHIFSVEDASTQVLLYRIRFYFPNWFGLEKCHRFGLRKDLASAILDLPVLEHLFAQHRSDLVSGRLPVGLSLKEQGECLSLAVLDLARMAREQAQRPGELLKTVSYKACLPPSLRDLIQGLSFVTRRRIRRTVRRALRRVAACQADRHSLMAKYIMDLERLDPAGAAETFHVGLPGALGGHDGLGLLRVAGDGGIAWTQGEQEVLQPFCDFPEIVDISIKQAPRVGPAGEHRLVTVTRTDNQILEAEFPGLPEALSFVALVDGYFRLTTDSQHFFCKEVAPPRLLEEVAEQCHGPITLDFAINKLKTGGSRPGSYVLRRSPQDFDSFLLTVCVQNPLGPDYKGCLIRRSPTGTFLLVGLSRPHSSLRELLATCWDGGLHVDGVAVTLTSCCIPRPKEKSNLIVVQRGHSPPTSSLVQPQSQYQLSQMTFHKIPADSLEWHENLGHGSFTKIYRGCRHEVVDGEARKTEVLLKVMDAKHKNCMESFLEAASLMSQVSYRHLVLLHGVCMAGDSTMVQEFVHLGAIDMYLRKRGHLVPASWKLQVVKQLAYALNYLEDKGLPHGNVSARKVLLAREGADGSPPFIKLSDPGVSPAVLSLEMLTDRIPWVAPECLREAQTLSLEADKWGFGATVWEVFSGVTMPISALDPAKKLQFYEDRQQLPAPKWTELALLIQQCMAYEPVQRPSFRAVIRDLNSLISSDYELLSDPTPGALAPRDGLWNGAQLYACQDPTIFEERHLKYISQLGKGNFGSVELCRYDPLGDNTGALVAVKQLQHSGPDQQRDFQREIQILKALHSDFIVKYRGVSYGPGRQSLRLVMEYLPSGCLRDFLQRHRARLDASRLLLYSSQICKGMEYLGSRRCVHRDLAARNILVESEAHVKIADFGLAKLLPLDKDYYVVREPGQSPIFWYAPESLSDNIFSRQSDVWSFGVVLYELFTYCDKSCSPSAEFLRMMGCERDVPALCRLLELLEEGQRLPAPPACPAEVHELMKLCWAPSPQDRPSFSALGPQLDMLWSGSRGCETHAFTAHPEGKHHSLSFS
Briefly: JAK3 Inhibition Assay (Omnia kinase fluorescence peptide substrate). Particulars: averaged IC50 ranges; 10 μM (Km app) or 1 mM ATP, 2.5 nM JAK3. An excerpt: (§1) The assays described in Examples A, B, C and D for the determination of Tyk2, JAK1, JAK2 and JAK3 kinase activity, respectively, utilized the Omnia® Kinase fluorescence peptide substrate-based technology (Invitrogen). The specific components of the assay mixture are described in Examples A, B, C and D. In these assays, Mg^2+ is chelated upon phosphorylation of the Omnia peptide by the kinase to form a bridge between the chelation-enhanced fluorophore Sox and the phosphate, resulting in an increase in fluorescence emission at 485 nm when excited at […]. The reactions were therefore read at excitation 360 nm and emission was measured at 485 nm every 50 seconds for 45 minutes using a PerkinElmer EnVision Multilabel Plate Reader.
(§2) The final buffer conditions for Tyk2, JAK1, JAK2, and JAK3 assays were as follows: 25 mM HEPES, pH 7.4, 10 mM MgCl2, 0.01% Triton X-100 and 1 mM DTT.
(§3) Compounds were prepared at 50× the final concentration in DMSO by conducting 3-fold serial dilutions from a 500-μM intermediate dilution to give a 10-point dosing curve having a high dose of 10 μM. Two-μL aliquots of these were transferred to a fresh plate for a ten-fold intermediate dilution with assay buffer. Five-μL aliquots of the diluted compounds were then transferred to 20-μL of assay mixtures described in Examples A, B, C and D for a final concentration of DMSO of 2%. A standard or reference compound was typically included on each assay plate to validate that plate. For each plate, percent of control (POC) values were calculated for each well according to the following equation: […]
(§4) IC50's were estimated from the POC's using a standard 4-parameter logistic model:
(§5) The IC50 is defined as the concentration of inhibitor at which the POC equals 50 for the fitted curve.
Compounds of Formula I were screened for their ability to inhibit JAK3 using the general enzyme inhibition assay method, in which the assay mixture contained 10 μM (Km app) or 1 mM ATP, 10 μM Omnia® Y7 peptide (Catalog #IVGN KNZ3071C, Invitrogen Corporation, Carlsbad, Calif.) and 2.5 nM JAK3 in a total volume of 20 μL. JAK3 was purchased from Invitrogen Corporation, Carlsbad, Calif. (catalog #IVGN PV4080).

Another experiment has as its target T2, JAK2 (Homo sapiens, UniProt O60674).
T2 construct: purchased Invitrogen Corporation, Carlsbad, Calif; IVGN PV4288
Briefly: JAK2 Inhibition Assay (Omnia kinase fluorescence peptide substrate). Particulars: averaged IC50 ranges; 25 μM (Km app) or 1 mM ATP, 5 nM JAK2.
From the text: as §1, §2, §3, §4, §5
Compounds of Formula I were screened for their ability to inhibit JAK2 using the general enzyme inhibition assay method, in which the assay mixture contained 25 μM (Km app) or 1 mM ATP, 10 μM Omnia® Y7 peptide (Catalog #IVGN KNZ3071C, Invitrogen Corporation, Carlsbad, Calif.) and 5 nM JAK2 in a total volume of 20 μL. JAK2 was purchased from Invitrogen Corporation, Carlsbad, Calif. (catalog #IVGN PV4288).

A further experiment concerns the target T3, JAK1 (Homo sapiens, UniProt P23458).
T3 construct: purchased Invitrogen Corporation, Carlsbad, Calif; IVGN PV4775
Briefly: JAK1 Inhibition Assay (Omnia kinase fluorescence peptide substrate). The conditions noted are these: averaged IC50 ranges; 40 μM (Km app) or 1 mM ATP, 15 nM JAK1.
From the text: as §1, §2, §3, §4, §5
Compounds of Formula I were screened for their ability to inhibit JAK1 using the general enzyme inhibition assay method, in which the assay mixture contained 40 μM (Km app) or 1 mM ATP, 8 μM Omnia® Y12 peptide (Catalog #IVGN KPZ3121C; Invitrogen Corporation, Carlsbad, Calif.) and 15 nM JAK1 in a total volume of 20 μL. JAK1 was purchased from Invitrogen Corporation, Carlsbad, Calif. (catalog #IVGN PV4775).

A further experiment concerns the target T4, Human Tyk2 kinase domain (Homo sapiens, UniProt P29597).
T4 construct: comprising amino acids 886 to 1187; His10 (10 histidine residues) (C, cleaved yes); made in house
T4 sequence (P29597 886-1187): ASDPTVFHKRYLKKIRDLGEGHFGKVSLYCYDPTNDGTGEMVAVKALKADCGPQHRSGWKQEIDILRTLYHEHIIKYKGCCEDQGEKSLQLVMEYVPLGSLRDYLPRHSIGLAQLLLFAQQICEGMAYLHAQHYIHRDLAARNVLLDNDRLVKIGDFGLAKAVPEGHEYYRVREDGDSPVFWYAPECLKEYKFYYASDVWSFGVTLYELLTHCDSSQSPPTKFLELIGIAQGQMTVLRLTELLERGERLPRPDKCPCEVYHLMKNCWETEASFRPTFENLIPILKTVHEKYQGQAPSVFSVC
As to the kind of experiment: Tyk2 Inhibition Assay (Omnia kinase fluorescence peptide substrate). The conditions noted are these: averaged IC50 ranges; 10 μM (Km app) or 1 mM ATP, 2 nM Tyk2.
From the text: as §1, §2, §3, §4, §5
Compounds of Formula I were screened for their ability to inhibit Tyk2 using the general enzyme inhibition assay method, in which the assay mixture contained 10 μM (Km app) or 1 mM ATP, 8 μM Omnia® Y12 peptide (Catalog #IVGN KPZ3121C; Invitrogen Corporation, Carlsbad, Calif.) and 2 nM Tyk2 in a total volume of 20 μL. Human Tyk2 kinase domain, comprising amino acids 886 to 1187 with 10 additional histidine residues (histidine tag) on the carboxy terminus, was expressed and purified from bacculovirus in-house at Array BioPharma Inc. (Boulder, Colo.). The histidine tag was cleaved after purification using standard conditions.

SMILES strings stand for the structures.

T2 sequence (O60674 whole entry): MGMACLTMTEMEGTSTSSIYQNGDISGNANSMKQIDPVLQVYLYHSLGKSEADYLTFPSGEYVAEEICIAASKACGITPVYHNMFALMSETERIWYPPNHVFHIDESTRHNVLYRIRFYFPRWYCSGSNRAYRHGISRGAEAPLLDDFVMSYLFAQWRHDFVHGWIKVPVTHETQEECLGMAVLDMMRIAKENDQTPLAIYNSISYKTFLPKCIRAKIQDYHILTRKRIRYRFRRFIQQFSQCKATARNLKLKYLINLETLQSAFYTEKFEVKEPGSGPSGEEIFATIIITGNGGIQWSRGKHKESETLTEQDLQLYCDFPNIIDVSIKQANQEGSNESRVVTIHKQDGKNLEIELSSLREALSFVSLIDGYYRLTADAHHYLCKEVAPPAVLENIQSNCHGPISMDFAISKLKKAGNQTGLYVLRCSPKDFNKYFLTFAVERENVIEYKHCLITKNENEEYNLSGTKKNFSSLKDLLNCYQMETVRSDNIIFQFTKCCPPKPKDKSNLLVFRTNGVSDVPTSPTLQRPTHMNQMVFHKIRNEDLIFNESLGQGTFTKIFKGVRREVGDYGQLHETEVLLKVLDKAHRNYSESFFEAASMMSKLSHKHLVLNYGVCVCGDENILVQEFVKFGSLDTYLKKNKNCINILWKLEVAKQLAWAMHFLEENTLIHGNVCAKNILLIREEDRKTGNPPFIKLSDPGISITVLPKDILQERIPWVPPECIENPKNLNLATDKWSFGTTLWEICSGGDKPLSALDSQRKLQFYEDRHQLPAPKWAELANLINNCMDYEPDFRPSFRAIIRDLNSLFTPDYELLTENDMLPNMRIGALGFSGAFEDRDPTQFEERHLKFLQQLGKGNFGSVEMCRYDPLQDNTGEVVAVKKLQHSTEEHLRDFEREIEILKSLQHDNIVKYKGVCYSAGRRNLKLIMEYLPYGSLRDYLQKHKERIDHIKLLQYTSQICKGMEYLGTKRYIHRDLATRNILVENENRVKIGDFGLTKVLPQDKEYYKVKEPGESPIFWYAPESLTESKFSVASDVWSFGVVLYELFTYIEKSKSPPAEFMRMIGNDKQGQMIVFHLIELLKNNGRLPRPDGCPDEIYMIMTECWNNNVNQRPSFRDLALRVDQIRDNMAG
T3 sequence (P23458 whole entry): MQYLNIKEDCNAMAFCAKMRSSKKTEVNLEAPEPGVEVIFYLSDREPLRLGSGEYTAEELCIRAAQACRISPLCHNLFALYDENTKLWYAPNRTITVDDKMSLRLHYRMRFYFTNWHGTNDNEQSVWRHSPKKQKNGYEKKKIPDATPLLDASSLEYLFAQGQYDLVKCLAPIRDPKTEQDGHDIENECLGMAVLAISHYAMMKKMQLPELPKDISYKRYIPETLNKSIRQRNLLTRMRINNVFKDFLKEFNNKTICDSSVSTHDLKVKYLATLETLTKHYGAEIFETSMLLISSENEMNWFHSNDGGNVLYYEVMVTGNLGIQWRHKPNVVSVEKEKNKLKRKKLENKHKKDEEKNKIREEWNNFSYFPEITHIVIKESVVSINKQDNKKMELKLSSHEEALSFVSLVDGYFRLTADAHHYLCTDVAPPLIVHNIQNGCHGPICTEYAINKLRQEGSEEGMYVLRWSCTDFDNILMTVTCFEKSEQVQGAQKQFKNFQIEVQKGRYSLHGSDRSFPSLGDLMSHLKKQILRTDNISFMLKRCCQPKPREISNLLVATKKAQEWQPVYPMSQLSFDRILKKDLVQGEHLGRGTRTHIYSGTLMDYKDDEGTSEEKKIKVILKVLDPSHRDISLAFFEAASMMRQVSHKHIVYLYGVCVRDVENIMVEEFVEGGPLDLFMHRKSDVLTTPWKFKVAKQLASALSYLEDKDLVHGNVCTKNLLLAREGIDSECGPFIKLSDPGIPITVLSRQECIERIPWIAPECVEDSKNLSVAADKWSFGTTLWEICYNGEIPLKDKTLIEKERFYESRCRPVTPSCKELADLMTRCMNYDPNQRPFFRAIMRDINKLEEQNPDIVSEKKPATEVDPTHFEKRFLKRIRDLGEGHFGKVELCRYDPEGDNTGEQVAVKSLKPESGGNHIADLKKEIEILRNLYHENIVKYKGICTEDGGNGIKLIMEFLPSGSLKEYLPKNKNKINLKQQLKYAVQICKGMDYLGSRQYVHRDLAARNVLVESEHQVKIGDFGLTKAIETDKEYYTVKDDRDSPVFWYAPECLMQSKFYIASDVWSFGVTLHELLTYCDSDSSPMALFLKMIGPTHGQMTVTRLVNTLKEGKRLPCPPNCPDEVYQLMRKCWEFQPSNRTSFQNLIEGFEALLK

A word on the IC50: it is the midpoint of a concentration-inhibition curve. With `Cn1cc(-c2cc3nccn3c(-c3ccn(C4(CCF)CN(S(=O)(=O)C(F)(F)F)C4)c3)n2)cn1` [Example 26, 5-(1-(3-(2-fluoroethyl)-1-((trifluoromethyl)sulfonyl)azetidin-3-yl)-1H-pyrrol-3-yl)-7-(1-methyl-1H-pyrazol-4-yl)imidazo[1,2-c]pyrimidine], the IC50 on JAK3 is 10 to 100 nM; against JAK2, 10 to 100 nM; on JAK1, 10 to 100 nM; on Human Tyk2 kinase domain, < 10 nM.

On to `CC=C[C@@H](C1CC1)n1cc(-c2nc(-c3cnn(C)c3)cc3nccn23)cn1` [Example 39, (R)-5-(1-(1-cyclopropylbut-2-en-1-yl)-1H-pyrazol-4-yl)-7-(1-methyl-1H-pyrazol-4-yl)imidazo[1,2-c]pyrimidine], for which the IC50 against JAK3 was in the range of 100 to 1000 nM; at JAK2, 100 to 1000 nM; on JAK1, 100 to 1000 nM; on Human Tyk2 kinase domain, 10 to 100 nM.

With `COCCC(C1CC1)n1cc(-c2nc(-c3cnn(C)c3)cc3nccn23)cn1` (centres unmarked) [Example 74, 5-(1-(1-cyclopropyl-3-methoxypropyl)-1H-pyrazol-4-yl)-7-(1-methyl-1H-pyrazol-4-yl)imidazo[1,2-c]pyrimidine], the IC50 against JAK3 is > 1000 nM; on JAK2 it was 100 to 1000 nM; against JAK1 it was > 1000 nM; against Human Tyk2 kinase domain it was 10 to 100 nM.

`COCCC(C1CCC1)n1cc(-c2nc(-c3cnn(C)c3)cc3nccn23)cn1` (centres unmarked) [Example 76, 5-(1-(1-cyclobutyl-3-methoxypropyl)-1H-pyrazol-4-yl)-7-(1-methyl-1H-pyrazol-4-yl)imidazo[1,2-c]pyrimidine]: the IC50 at JAK3 is > 1000 nM; at JAK2, 100 to 1000 nM; on JAK1, > 1000 nM; at Human Tyk2 kinase domain, 100 to 1000 nM.

On to `Cn1cc(-c2cc3nccn3c(-c3cnn(C(CCO)C4CC4(F)F)c3)n2)cn1` (centres unmarked) [Example 35, 3-(2,2-difluorocyclopropyl)-3-(4-(7-(1-methyl-1H-pyrazol-4-yl)imidazo[1,2-c]pyrimidin-5-yl)-1H-pyrazol-1-yl)propan-1-ol], for which the IC50 on JAK3 is > 1000 nM; on JAK2, > 1000 nM; against JAK1, > 1000 nM; on Human Tyk2 kinase domain, 100 to 1000 nM.

In the case of `Cn1cc(-c2cc3nccn3c(-c3cnn(C(CCO)C4CCCC4)c3)n2)cn1` (centres unmarked) [Example 72, 3-cyclopentyl-3-(4-(7-(1-methyl-1H-pyrazol-4-yl)imidazo[1,2-c]pyrimidin-5-yl)-1H-pyrazol-1-yl)propan-1-ol], the IC50 on JAK3 is > 1000 nM; on JAK2, > 1000 nM; against JAK1, > 1000 nM; against Human Tyk2 kinase domain it was 100 to 1000 nM.

Regarding `Cn1ccc(-c2cc3nccn3c(-c3cnn(C4(CCF)CN(S(=O)(=O)C(F)(F)F)C4)c3)n2)cc1=O` [Example 79, 4-(5-(1-(3-(2-fluoroethyl)-1-((trifluoromethyl)sulfonyl)azetidin-3-yl)-1H-pyrazol-4-yl)imidazo[1,2-c]pyrimidin-7-yl)-1-methylpyridin-2(1H)-one], the 50% inhibitory concentration (IC50) at JAK3 fell in the range of 100 to 1000 nM; at JAK2, 100 to 1000 nM; at JAK1 it was 100 to 1000 nM; against Human Tyk2 kinase domain, 10 to 100 nM.

Consider `CC(=O)N1CC(CCF)(n2cc(-c3nc(-c4cnn(C)c4)cc4nccn34)cn2)C1` [Example 96, 1-(3-(2-fluoroethyl)-3-(4-(7-(1-methyl-1H-pyrazol-4-yl)imidazo[1,2-c]pyrimidin-5-yl)-1H-pyrazol-1-yl)azetidin-1-yl)ethanone], for which the IC50 against JAK3, against JAK2, on JAK1 and against Human Tyk2 kinase domain was > 1000 nM each time.

Regarding `Cn1cc(-c2cc3nccn3c(-c3cnn(C(C4CC4)C4CC4)c3)n2)cn1` [Example 9, 5-(1-(Dicyclopropylmethyl)-1H-pyrazol-4-yl)-7-(1-methyl-1H-pyrazol-4-yl)imidazo[1,2-c]pyrimidine], the IC50 is 100 to 1000 nM against JAK3, 100 to 1000 nM against JAK2, > 1000 nM on JAK1 and 10 to 100 nM at Human Tyk2 kinase domain.

As to `Cn1cc(-c2cc3nccn3c(-c3ccn(C(CCF)C4CC4)c3)n2)cn1` (centres unmarked) [Example 25, 5-(1-(1-cyclopropyl-3-fluoropropyl)-1H-pyrrol-3-yl)-7-(1-methyl-1H-pyrazol-4-yl)imidazo[1,2-c]pyrimidine], the IC50 is 10 to 100 nM on JAK3, 10 to 100 nM on JAK2, 10 to 100 nM against JAK1 and < 10 nM against Human Tyk2 kinase domain.

For the molecule `Cn1cc(-c2cc3nccn3c(-c3cnn(C4(CCF)CN(S(=O)(=O)NC5CC5)C4)c3)n2)cn1` [Example 46, N-cyclopropyl-3-(2-fluoroethyl)-3-(4-(7-(1-methyl-1H-pyrazol-4-yl)imidazo[l,2-c]pyrimidin-5-yl)-1H-pyrazol-1-yl)azetidine-1-sulfonamide], the IC50 was > 1000 nM at JAK3, 100 to 1000 nM against JAK2, 100 to 1000 nM on JAK1 and 100 to 1000 nM at Human Tyk2 kinase domain.

Source of the values: US20140228349A1, “5,7-SUBSTITUTED-IMIDAZO[1,2-C]PYRIMIDINES” (Array BioPharma Inc., priority 2011, published 2014).
